“And” between values parts separate entries of the source, which are not always exact repeats. Equal entries are not always repeated. Where two headings read alike, the source gives them in different places.
Key:
[1] = test system: gonococcal strain FA19; experiment: MIC of steroidal hormones on GC agar, strain FA19; type: cell-based; conditions: Neisseria gonorrhoeae
Description: To determine the minimal inhibitory concentrations (MICs) by the steroidal hormones and their effect on antimicrobial susceptibility, 5 x 10^5 CFU and 1:5 serial dilutions of gonococcal strains were spotted on GC agar plates containing different concentrations of antibiotics and/or hormones as indicated. Antimicrobial susceptibility was assessed after 24 h incubation.
Table S1. Steroidal hormones are substrates of the MtrCDE efflux pump
Progesterone Testosterone
*Minimal inhibition concentration is defined by the lowest concentration at which visible growth is […]

[2] = test system: rpoH-lacZ expression; type: cell-based, Neisseria gonorrhoeae; conditions: for Miller units, single well: individual replicate; for Plate-6 (Testosterone) Miller units, Mean / Plate-6 (Testosterone) Miller units: right (rpoH) half of sheet
[3] = rpoH-lacZ, ΔmtrR + mtrR D171A in trans, 6.25 µM hormone, single replicate
[4] = rpoH-lacZ, ΔmtrR + mtrR D171A in trans, 12.5 µM hormone, single replicate
[5] = rpoH-lacZ, ΔmtrR + mtrR D171A in trans, 25 µM hormone, single replicate

C[C@]12CC[C@H]3[C@@H](CCC4=CC(=O)CC[C@@]43C)[C@@H]1CC[C@@H]2O [Testosterone, testosterone]
MIC ([1]; FA19): 160 µg/mL
MIC ([1]; FA19, 24 h): 555 µM
Miller units, single well ([2]; 6.25 µM hormone, plate columns 1-6 (WT)): 114 Miller units and 127 Miller units and 153 Miller units
Miller units, Mean ([2]; 6.25 µM hormone, plate columns 1-6 (WT), mean of 4 wells): 125 Miller units
Miller units, Mean ([2]; 6.25 µM hormone, plate columns 1-6 (WT), mean of plate rows 5-8 (rpoH)): 125 Miller units
Miller units ([2]; 6.25 µM hormone, plate columns 1-6 (WT), plate rows 5-8 (rpoH), single well): 114 Miller units and 127 Miller units and 153 Miller units and 108 Miller units
Miller units ([2]; 6.25 µM hormone, plate columns 7-12 (second strain not given), plate rows 5-8 (rpoH), single well): 161 Miller units and 167 Miller units and 191 Miller units and 162 Miller units
Miller units, Mean ([2]; 6.25 µM hormone, plate columns 7-12 (second strain), mean of plate rows 5-8 (rpoH)): 170 Miller units
Miller units, single well ([2]; 6.25 µM hormone, plate columns 7-12 (second strain, not WT)): 161 Miller units and 167 Miller units and 191 Miller units
Miller units, Mean ([2]; 6.25 µM hormone, plate columns 7-12 (second strain, not WT), mean of 4 wells): 170 Miller units
Plate-6 (Testosterone) Miller units, Mean ([2]; 6.25 µM, plate column 3, mean of plate rows 5-8): 43 Miller units
Plate-6 (Testosterone) Miller units ([2]; 6.25 µM, plate column 3, plate rows 5-8, single wells): 39 Miller units and 46 Miller units and 47 Miller units
Plate-6 (Testosterone) Miller units, Mean ([2]; 6.25 µM, plate column 9, mean of plate rows 5-8): 64 Miller units
Plate-6 (Testosterone) Miller units ([2]; 6.25 µM, single wells): 55 Miller units and 57 Miller units and 65 Miller units and 80 Miller units
Miller units, single well ([2]; 12.5 µM hormone, plate columns 1-6 (WT)): 120 Miller units and 124 Miller units and 149 Miller units
Miller units, Mean ([2]; 12.5 µM hormone, plate columns 1-6 (WT), mean of 4 wells): 130 Miller units
Miller units, Mean ([2]; 12.5 µM hormone, plate columns 1-6 (WT), mean of plate rows 5-8 (rpoH)): 130 Miller units
Miller units ([2]; 12.5 µM hormone, plate columns 1-6 (WT), plate rows 5-8 (rpoH), single well): 120 Miller units and 124 Miller units and 149 Miller units and 125 Miller units
Miller units ([2]; 12.5 µM hormone, plate columns 7-12 (second strain not given), plate rows 5-8 (rpoH), single well): 161 Miller units and 177 Miller units and 186 Miller units and 176 Miller units
Miller units, Mean ([2]; 12.5 µM hormone, plate columns 7-12 (second strain), mean of plate rows 5-8 (rpoH)): 175 Miller units
Miller units, single well ([2]; 12.5 µM hormone, plate columns 7-12 (second strain, not WT)): 161 Miller units and 177 Miller units and 186 Miller units
Miller units, Mean ([2]; 12.5 µM hormone, plate columns 7-12 (second strain, not WT), mean of 4 wells): 175 Miller units
Plate-6 (Testosterone) Miller units, Mean ([2]; 12.5 µM, plate column 4, mean of plate rows 5-8): 52 Miller units
Plate-6 (Testosterone) Miller units ([2]; 12.5 µM, plate column 4, plate rows 5-8, single wells): 51 Miller units and 50 Miller units and 56 Miller units and 52 Miller units
Plate-6 (Testosterone) Miller units, Mean ([2]; 12.5 µM, plate column 10, mean of plate rows 5-8): 62 Miller units
Plate-6 (Testosterone) Miller units ([2]; 12.5 µM, plate column 10, plate rows 5-8, single wells): 58 Miller units and 54 Miller units and 63 Miller units and 74 Miller units
Miller units, single well ([2]; 25 µM hormone, plate columns 1-6 (WT)): 127 Miller units and 137 Miller units
Miller units, Mean ([2]; 25 µM hormone, plate columns 1-6 (WT), mean of 4 wells): 133 Miller units
Miller units, Mean ([2]; 25 µM hormone, plate columns 1-6 (WT), mean of plate rows 5-8 (rpoH)): 133 Miller units
Miller units ([2]; 25 µM hormone, plate columns 1-6 (WT), plate rows 5-8 (rpoH), single well): 127 Miller units and 137 Miller units and 133 Miller units
Miller units ([2]; 25 µM hormone, plate columns 7-12 (second strain not given), plate rows 5-8 (rpoH), single well): 168 Miller units and 179 Miller units and 147 Miller units and 185 Miller units
Miller units, Mean ([2]; 25 µM hormone, plate columns 7-12 (second strain), mean of plate rows 5-8 (rpoH)): 170 Miller units
Miller units, single well ([2]; 25 µM hormone, plate columns 7-12 (second strain, not WT)): 168 Miller units and 179 Miller units and 147 Miller units
Miller units, Mean ([2]; 25 µM hormone, plate columns 7-12 (second strain, not WT), mean of 4 wells): 170 Miller units
Plate-6 (Testosterone) Miller units, Mean ([2]; 25 µM, plate column 5, mean of plate rows 5-8): 63 Miller units
Plate-6 (Testosterone) Miller units ([2]; 25 µM, plate column 5, plate rows 5-8, single wells): 68 Miller units and 55 Miller units and 57 Miller units and 70 Miller units
Plate-6 (Testosterone) Miller units, Mean ([2]; 25 µM, plate column 11, mean of plate rows 5-8): 65 Miller units
Plate-6 (Testosterone) Miller units ([2]; 25 µM, plate column 11, plate rows 5-8, single wells): 64 Miller units and 60 Miller units and 68 Miller units and 67 Miller units
Miller units, single well ([2]; 50 µM hormone, plate columns 1-6 (WT)): 140 Miller units and 146 Miller units and 175 Miller units
Miller units, Mean ([2]; 50 µM hormone, plate columns 1-6 (WT), mean of 4 wells): 152 Miller units
Miller units, Mean ([2]; 50 µM hormone, plate columns 1-6 (WT), mean of plate rows 5-8 (rpoH)): 152 Miller units
Miller units ([2]; 50 µM hormone, plate columns 1-6 (WT), plate rows 5-8 (rpoH), single well): 140 Miller units and 146 Miller units and 175 Miller units
Miller units ([2]; 50 µM hormone, plate columns 7-12 (second strain not given), plate rows 5-8 (rpoH), single well): 166 Miller units and 158 Miller units and 156 Miller units
Miller units, Mean ([2]; 50 µM hormone, plate columns 7-12 (second strain), mean of plate rows 5-8 (rpoH)): 162 Miller units
Miller units, single well ([2]; 50 µM hormone, plate columns 7-12 (second strain, not WT)): 166 Miller units and 158 Miller units and 156 Miller units
Miller units, Mean ([2]; 50 µM hormone, plate columns 7-12 (second strain, not WT), mean of 4 wells): 162 Miller units
Plate-6 (Testosterone) Miller units, Mean ([2]; 50 µM, plate column 6, mean of plate rows 5-8): 68 Miller units
Plate-6 (Testosterone) Miller units ([2]; 50 µM, plate column 6, plate rows 5-8, single wells): 76 Miller units and 71 Miller units and 62 Miller units and 63 Miller units
Plate-6 (Testosterone) Miller units, Mean ([2]; 50 µM, plate column 12, mean of plate rows 5-8): 57 Miller units
Plate-6 (Testosterone) Miller units ([2]; 50 µM, single wells): 65 Miller units and 49 Miller units and 56 Miller units and 58 Miller units
induction of rpoH expression ([2]; complemented (MtrR+) strains, increasing hormone): could be induced
induction of rpoH expression ([2]; loss of MtrR or MtrR-D171A strain): abrogated
Miller units [2, 3]: 55 Miller units and 65 Miller units
β-galactosidase activity (Miller units) [2, 3]: 55 Miller units and 57 Miller units and 80 Miller units
Miller units [2, 4]: 63 Miller units
β-galactosidase activity (Miller units) [2, 4]: 58 Miller units and 54 Miller units and 74 Miller units
Miller units [2, 5]: 68 Miller units
β-galactosidase activity (Miller units) [2, 5]: 64 Miller units and 60 Miller units and 67 Miller units
Miller units ([2]; rpoH-lacZ, ΔmtrR + mtrR D171A in trans, 50 µM hormone, single replicate): 56 Miller units
